Experiments:
Assay in all cases: 33PanQinase panel
Assay type in all cases: biochemical
PBK = biological target: T1, PBK (Homo sapiens, UniProt Q96KB5); conditions: read-out: Residual Activity (%)
T1 construct: purchased ProQinase
In short: (§1)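 Single-point screen at 1 µM in a 320 wild-type kinase panel using activity-based radiometric 33P assay; final DMSO 1%. Values are percent residual kinase activity relative to DMSO control.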

RPS6KA5 = biological target: T2, RPS6KA5 (Homo sapiens, UniProt O75582); conditions: RPS6KA5, 1 µM; read-out: Residual Activity (%)
T2 construct: purchased ProQinase
In short: as §1

VRK1 = biological target: T3, VRK1 (Homo sapiens, UniProt Q99986); conditions: VRK1, 1 µM; read-out: Residual Activity (%)
T3 construct: purchased ProQinase
In short: as §1

ACK1 = biological target: T4, ACK1 (Homo sapiens, UniProt Q07912); conditions: ACK1, 1 µM; read-out: Residual Activity (%)
T4 construct: purchased ProQinase
In short: as §1

LCK = biological target: T5, LCK (Homo sapiens, UniProt P06239); conditions: read-out: Residual Activity (%)
T5 construct: purchased ProQinase
In short: as §1

AKT2 aa107-481 = biological target: T6, AKT2 aa107-481 (Homo sapiens, UniProt P31751); conditions: AKT2 aa107-481, 1 µM; read-out: Residual Activity (%)
T6 construct: purchased ProQinase
In short: as §1

ACV-RL1 = biological target: T7, ACV-RL1 (Homo sapiens, UniProt P37023); conditions: ACV-RL1, 1 µM; read-out: Residual Activity (%)
T7 construct: purchased ProQinase
In short: as §1

TEC = biological target: T8, TEC (Homo sapiens, UniProt P42680); conditions: read-out: Residual Activity (%)
T8 construct: purchased ProQinase
In short: as §1

DYRK3 = biological target: T9, DYRK3 (Homo sapiens, UniProt O43781); conditions: DYRK3, 1 µM; read-out: Residual Activity (%)
T9 construct: purchased ProQinase
In short: as §1

MEK1 = biological target: T10, MEK1 (Homo sapiens, UniProt Q02750); conditions: MEK1, 1 µM; read-out: Residual Activity (%)
T10 construct: purchased ProQinase
In short: as §1

PRK2 = biological target: T11, PRK2 (Homo sapiens, UniProt Q16513); conditions: PRK2, 1 µM; read-out: Residual Activity (%)
T11 construct: purchased ProQinase
In short: as §1

MLK4 = biological target: T12, MLK4 (Homo sapiens, UniProt Q5TCX8); conditions: MLK4, 1 µM; read-out: Residual Activity (%)
T12 construct: purchased ProQinase
In short: as §1

MKNK2 = biological target: T13, MKNK2 (Homo sapiens, UniProt Q9HBH9); conditions: MKNK2, 1 µM; read-out: Residual Activity (%)
T13 construct: purchased ProQinase
In short: as §1

VRK2 = biological target: T14, VRK2 (Homo sapiens, UniProt Q86Y07); conditions: VRK2, 1 µM; read-out: Residual Activity (%)
T14 construct: purchased ProQinase
In short: as §1

CDK6/CycD1 = biological target: T15, CDK6/CycD1 (Homo sapiens, UniProt Q00534); conditions: CDK6/CycD1, 1 µM; read-out: Residual Activity (%)
T15 construct: purchased ProQinase
In short: as §1

SIK3 = biological target: T16, SIK3 (Homo sapiens, UniProt Q9Y2K2); conditions: SIK3, 1 µM; read-out: Residual Activity (%)
T16 construct: purchased ProQinase
In short: as §1

STK17A = biological target: T17, STK17A (Homo sapiens, UniProt Q9UEE5); conditions: read-out: Residual Activity (%)
T17 construct: purchased ProQinase
In short: as §1

PIM1 = biological target: T18, PIM1 (Homo sapiens, UniProt P11309); conditions: PIM1, 1 µM; read-out: Residual Activity (%)
T18 construct: purchased ProQinase
In short: as §1

CK1-gamma1 = biological target: T19, CK1-gamma1 (Homo sapiens, UniProt Q9HCP0); conditions: CK1-gamma1, 1 µM; read-out: Residual Activity (%)
T19 construct: purchased ProQinase
In short: as §1

INS-R = biological target: T20, INS-R (Homo sapiens, UniProt P06213); conditions: read-out: Residual Activity (%)
T20 construct: purchased ProQinase
In short: as §1

CDK6/CycD3 = biological target: T21, CDK6/CycD3 (Homo sapiens, UniProt Q00534); conditions: CDK6/CycD3, 1 µM; read-out: Residual Activity (%)
T21 construct: purchased ProQinase
In short: as §1

ALK (GST-HIS-tag) = biological target: T22, ALK (GST-HIS-tag) (Homo sapiens, UniProt Q9UM73); conditions: read-out: Residual Activity (%)
T22 construct: purchased ProQinase
In short: as §1

T6 sequence (P31751 107-481 limits assumed): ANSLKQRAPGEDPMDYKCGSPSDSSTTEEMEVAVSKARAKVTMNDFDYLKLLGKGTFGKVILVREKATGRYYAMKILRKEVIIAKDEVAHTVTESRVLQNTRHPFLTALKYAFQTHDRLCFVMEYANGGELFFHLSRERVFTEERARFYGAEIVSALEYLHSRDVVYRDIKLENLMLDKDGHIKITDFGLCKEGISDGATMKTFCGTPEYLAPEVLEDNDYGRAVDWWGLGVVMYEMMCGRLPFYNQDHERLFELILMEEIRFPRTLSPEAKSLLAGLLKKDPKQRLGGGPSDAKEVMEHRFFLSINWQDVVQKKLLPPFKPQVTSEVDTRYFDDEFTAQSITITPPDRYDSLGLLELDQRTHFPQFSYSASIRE
T10 sequence (Q02750 whole entry): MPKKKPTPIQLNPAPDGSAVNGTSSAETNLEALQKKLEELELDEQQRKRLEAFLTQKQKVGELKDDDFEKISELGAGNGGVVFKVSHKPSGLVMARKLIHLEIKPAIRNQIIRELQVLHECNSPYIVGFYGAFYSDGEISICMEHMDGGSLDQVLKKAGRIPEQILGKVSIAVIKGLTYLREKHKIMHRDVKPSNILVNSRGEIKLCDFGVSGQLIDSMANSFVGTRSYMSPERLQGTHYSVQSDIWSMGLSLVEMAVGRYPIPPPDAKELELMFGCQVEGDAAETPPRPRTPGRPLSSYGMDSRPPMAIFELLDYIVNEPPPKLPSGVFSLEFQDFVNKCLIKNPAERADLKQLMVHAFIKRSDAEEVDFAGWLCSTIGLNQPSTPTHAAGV
T2 sequence (O75582 whole entry): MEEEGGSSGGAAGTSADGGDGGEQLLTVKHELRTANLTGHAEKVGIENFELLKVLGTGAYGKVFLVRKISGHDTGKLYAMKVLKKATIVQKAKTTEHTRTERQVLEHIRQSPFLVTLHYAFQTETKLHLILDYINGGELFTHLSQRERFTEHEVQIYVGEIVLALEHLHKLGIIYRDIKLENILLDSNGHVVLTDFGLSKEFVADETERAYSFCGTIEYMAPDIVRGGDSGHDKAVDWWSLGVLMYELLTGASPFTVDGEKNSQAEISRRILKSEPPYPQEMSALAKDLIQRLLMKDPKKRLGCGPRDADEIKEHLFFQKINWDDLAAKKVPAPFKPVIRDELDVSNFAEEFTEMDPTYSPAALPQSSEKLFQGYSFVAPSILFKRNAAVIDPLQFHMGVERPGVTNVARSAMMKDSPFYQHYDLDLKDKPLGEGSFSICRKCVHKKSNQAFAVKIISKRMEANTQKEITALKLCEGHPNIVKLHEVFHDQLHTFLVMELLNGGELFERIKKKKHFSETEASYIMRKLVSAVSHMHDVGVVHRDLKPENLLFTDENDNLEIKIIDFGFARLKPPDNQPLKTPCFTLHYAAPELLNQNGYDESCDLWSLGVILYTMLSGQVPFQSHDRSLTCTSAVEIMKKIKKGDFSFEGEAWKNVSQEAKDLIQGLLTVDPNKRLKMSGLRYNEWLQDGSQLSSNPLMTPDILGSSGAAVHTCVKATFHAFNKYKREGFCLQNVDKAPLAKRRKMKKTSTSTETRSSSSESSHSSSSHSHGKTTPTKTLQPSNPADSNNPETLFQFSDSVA
T18 sequence (P11309 whole entry): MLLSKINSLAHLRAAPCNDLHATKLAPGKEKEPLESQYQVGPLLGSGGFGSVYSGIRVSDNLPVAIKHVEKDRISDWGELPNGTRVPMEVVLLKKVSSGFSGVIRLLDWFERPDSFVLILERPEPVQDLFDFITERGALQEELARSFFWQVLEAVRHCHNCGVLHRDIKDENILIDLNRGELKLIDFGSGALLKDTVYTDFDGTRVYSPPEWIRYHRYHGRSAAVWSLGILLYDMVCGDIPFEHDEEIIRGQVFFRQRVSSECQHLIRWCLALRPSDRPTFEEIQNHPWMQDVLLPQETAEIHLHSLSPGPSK
T15 sequence (Q00534 whole entry): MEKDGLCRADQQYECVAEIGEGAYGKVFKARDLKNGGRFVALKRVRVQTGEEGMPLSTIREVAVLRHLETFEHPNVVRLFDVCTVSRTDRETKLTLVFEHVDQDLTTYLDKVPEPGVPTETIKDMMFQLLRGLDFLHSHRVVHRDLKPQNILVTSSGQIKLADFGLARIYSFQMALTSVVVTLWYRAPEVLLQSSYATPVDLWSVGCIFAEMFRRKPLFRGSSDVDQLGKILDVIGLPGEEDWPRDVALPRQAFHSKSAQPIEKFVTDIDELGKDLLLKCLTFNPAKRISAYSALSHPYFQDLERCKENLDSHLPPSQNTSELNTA
T15 sequence (P24385 whole entry partner): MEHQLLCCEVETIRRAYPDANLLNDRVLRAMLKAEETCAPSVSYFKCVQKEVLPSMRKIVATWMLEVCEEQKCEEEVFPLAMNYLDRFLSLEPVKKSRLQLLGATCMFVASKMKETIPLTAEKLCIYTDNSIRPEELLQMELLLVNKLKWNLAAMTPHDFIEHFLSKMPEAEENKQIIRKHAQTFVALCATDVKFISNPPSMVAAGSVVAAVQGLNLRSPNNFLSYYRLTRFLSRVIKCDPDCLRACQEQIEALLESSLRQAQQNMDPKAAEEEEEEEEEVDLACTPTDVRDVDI
T21 sequence (Q00534 whole entry): as the sequence (Q00534 whole entry) above
T21 sequence (P30281 whole entry partner): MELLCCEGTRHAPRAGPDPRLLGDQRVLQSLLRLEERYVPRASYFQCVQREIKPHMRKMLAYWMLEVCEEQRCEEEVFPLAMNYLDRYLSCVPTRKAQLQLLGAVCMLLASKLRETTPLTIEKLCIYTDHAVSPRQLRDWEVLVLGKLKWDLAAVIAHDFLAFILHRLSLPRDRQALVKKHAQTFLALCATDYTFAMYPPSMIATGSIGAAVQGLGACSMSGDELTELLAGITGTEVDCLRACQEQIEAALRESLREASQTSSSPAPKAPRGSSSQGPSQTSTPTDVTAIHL
T16 sequence (Q9Y2K2 whole entry): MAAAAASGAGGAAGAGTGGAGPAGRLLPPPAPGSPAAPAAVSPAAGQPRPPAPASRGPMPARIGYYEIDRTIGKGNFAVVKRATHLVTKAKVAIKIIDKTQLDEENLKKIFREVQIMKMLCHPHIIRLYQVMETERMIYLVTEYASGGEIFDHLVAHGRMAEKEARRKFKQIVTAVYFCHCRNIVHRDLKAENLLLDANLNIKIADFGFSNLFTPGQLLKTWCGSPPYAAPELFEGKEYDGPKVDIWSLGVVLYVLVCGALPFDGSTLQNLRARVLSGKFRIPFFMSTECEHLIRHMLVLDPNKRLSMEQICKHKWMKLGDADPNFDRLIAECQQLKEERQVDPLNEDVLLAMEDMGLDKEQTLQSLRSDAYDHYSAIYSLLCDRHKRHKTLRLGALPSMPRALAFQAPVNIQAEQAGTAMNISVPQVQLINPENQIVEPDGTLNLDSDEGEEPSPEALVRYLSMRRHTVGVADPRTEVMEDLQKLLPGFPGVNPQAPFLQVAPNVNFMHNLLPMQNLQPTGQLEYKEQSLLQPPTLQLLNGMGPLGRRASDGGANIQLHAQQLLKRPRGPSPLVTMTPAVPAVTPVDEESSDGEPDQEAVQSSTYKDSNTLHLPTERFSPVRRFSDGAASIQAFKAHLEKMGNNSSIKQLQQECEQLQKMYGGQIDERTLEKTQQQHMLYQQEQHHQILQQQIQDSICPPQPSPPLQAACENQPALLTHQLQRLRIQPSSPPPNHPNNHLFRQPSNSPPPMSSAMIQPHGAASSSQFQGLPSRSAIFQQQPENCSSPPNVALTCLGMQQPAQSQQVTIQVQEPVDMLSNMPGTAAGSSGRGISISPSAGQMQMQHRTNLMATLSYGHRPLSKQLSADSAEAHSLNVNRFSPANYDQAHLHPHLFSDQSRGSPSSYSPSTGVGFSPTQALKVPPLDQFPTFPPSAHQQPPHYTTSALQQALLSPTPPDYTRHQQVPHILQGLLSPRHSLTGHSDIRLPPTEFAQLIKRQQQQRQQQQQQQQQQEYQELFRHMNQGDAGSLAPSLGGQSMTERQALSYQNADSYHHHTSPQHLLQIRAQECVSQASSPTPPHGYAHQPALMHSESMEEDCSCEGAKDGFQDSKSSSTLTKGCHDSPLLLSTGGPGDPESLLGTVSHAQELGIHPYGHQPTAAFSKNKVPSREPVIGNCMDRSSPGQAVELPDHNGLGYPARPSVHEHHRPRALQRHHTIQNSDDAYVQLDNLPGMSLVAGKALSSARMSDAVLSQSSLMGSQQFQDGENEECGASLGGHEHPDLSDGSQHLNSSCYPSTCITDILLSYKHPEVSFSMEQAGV
T7 sequence (P37023 22-503): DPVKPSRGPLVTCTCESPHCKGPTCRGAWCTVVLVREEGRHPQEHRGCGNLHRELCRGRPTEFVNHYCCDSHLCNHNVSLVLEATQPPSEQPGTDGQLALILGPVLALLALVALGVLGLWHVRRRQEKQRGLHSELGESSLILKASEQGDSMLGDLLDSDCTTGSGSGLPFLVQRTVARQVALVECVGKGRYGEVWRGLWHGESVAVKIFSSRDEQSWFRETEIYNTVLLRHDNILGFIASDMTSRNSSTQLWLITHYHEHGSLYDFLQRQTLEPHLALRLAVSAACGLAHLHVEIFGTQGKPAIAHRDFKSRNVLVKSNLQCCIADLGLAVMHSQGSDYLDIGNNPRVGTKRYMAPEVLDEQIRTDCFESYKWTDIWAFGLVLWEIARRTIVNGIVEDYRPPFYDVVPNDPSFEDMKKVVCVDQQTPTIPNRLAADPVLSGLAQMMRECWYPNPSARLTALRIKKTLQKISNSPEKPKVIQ
T1 sequence (Q96KB5 whole entry): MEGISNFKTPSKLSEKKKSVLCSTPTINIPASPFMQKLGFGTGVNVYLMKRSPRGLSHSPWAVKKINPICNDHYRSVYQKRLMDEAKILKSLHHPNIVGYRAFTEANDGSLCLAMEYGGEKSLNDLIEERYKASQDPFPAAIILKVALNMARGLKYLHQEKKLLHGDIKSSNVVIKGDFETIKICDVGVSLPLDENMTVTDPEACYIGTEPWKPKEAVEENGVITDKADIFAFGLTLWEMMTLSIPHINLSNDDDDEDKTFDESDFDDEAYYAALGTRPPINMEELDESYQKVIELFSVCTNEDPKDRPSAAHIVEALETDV

For `COc1ccc(-c2cc(C(=O)Nc3cc(-c4c(-c5ccc(F)cc5)noc4C(C)C)ccn3)n(CC3NCC(O)C3O)c2)cc1` (stereo not shown) [29d], the remaining activity at 1 µM (PBK) was 89%, the remaining activity at 1 µM (RPS6KA5) was 101% and the remaining activity at 1 µM (VRK1) was 117%. For the same molecule, the remaining activity at 1 µM (ACK1) was 96%, the remaining activity at 1 µM (LCK) was 96% and the remaining activity at 1 µM (AKT2 aa107-481) was 107%. For the same molecule, the remaining activity at 1 µM (ACV-RL1) was 115%, the remaining activity at 1 µM (TEC) was 109% and the remaining activity at 1 µM (DYRK3) was 106%. The remaining activity at 1 µM (MEK1) was 90%, the remaining activity at 1 µM (PRK2) was 88% and the remaining activity at 1 µM (MLK4) was 112%. It also gave a remaining activity at 1 µM (MKNK2) of 92%, a remaining activity at 1 µM (VRK2) of 92% and a remaining activity at 1 µM (CDK6/CycD1) of 104%. The remaining activity at 1 µM (SIK3) was 104%, the remaining activity at 1 µM (STK17A) was 102% and the remaining activity at 1 µM (PIM1) was 94%. The remaining activity at 1 µM (CK1-gamma1) was 88%, the remaining activity at 1 µM (INS-R) was 101% and the remaining activity at 1 µM (CDK6/CycD3) was 98%. It also gave a remaining activity at 1 µM (ALK (GST-HIS-tag)) of 105%.

— publication PMC6429214, “Design, Synthesis and Biological Evaluation of Isoxazole-Based CK1 Inhibitors Modified with Chiral Pyrrolidine Scaffolds” (Molecules, 2019)
